Assay results taken from US20220002663A1, “SELECTIVE SALMONELLA OR E. COLI CULTIVATION METHOD, COMPOSITIONS AND USES” (SOLUS SCIENTIFIC SOLUTIONS LTD, priority 2018, published 2022).

Legend:
Format in all cases: cell-based
Salmonella [1] = test: Inclusivity: culture of pure Salmonella serovars in BPW with selective agent or supplement, ELISA detection (FIG. 4, FIG. 6); settings: 5 mg/L 4PYcq; 20 hour culture; same inoculums of pure Salmonella cultures
From the text: FIG. 4 illustrates inclusivity study data where multiple Salmonella serovars were artificially inoculated into either Buffered Peptone Water (BPW) on its own, or BPW enriched with either a selective cefsulodin, novobiocin, brilliant green lyophilised supplement run in the absence or presence of an oatmeal food matrix; or a selective cefsulodin, novobiocin, 4PYcq lyophilised supplement run in the absence of an oatmeal food matrix.
FIG. 6 illustrates inclusivity study data where multiple Salmonella serovars were artificially inoculated into BPW enriched with a selective cefsulodin, novobiocin, 4PYcq lyophilised supplement at low levels.

competing microflora = test: Suppression of competing microflora in cultures of sample types; settings: 5 mg/L; range of sample types, including dairy and probiotic foods
Salmonella [2] = test: Recovery and detection of Salmonella from spices, herbs and flavourings, single step culture (FIGS. 9-13); settings: spices/flavourings from the allium family; FIG. 13
From the text: This was at fractional inoculation level (2-8 cfu). Accordingly a method with the ‘Spice neutraliser’ supplement is capable of detecting Salmonella from spice/herb/flavouring samples, even when the Salmonella is present at fractional levels.
This was at a high inoculation level (40-92 cfu).
The data provided in FIGS. 9A and 9B are derived from samples that were inoculated with a relatively high level of Salmonella (FIG. 9A—77-114cfu; FIG. 9B—38 cfu).
FIG. 10 provides data derived from fractional inoculation levels (2-8 cfu). In this instance the cells are cultured in the 4PYcq/Cefsulodin/Novobiocin supplement at half the concentration of that used previously, i.e. at a working concentration of 2.5 mg/L 4PYcq, 4 mg/L Cefsulodin and 5 mg/L Novobiocin.

Compound: CC(C)(C)c1cc(/C=N/N=C(\N)c2ccncc2)c(O)c(C(C)(C)C)c1 [4PYcq]
- identification of Salmonella by ELISA after culture (Salmonella [1]): positive identification of the presence of Salmonella
- suppression of competing microflora (competing microflora): sufficient suppression of competing microflora

Compound: O=S([O-])[O-].[K+].[K+] [potassium salt component, potassium sulphite]
- recovery of Salmonella (Salmonella [2]): sufficient for recovery of Salmonella
